From patent publication US20080070883A1, “Use of LXR modulators for the prevention and treatment of skin aging” (Wyeth, priority 2006, published 2008)

Assays:
IL-8 = assay: TaqMan quantitative PCR, IL-8 gene expression in NHEKs; assay type: cell-based, human; details: UV-exposed (8 J/m^2), 1 μM, FIG. 5
Experimental: (§1) Add QIAzol® Lysis Reagent (QIAGEN Cat Number 79306) to the cells. Scrape the cells and place into a Falcon Polypropylene tube. Let stand at room temperature for 5 minutes. Add 1 ml of cells to microfuge tubes. Add 200 μl of chloroform, vortex, let stand for 5 minutes. Centrifuge at 4° C. for 15 minutes at 14,000 RPM. Add an equal volume of 70% ETOH (diluted with DEPC water). Add 600 μl to the RNeasy® column from the RNeasy® Mini Kit (QIAGEN Cat. Number 74106) centrifuge at 14,000 RPM at room temperature for 1 minute, discard flow-through. Add remainder of sample to the column, centrifuge, discard flow-through. Add 350 μl of RW1 buffer from the RNeasy® Mini Kit to the column, centrifuge at room temperature for 1 minute, discard flow-through. […] TaqMan technology was used for quantitative PCR for the evaluation of MMP, TNFα, TIMP, IL-8, ASAH1, SPTLC1, SMPD1, LASS2, TXNRD1, GPX3, GSR, CAT, ABCA1, ABCA2, ABCA12, ABCA13, ABCG1, decorin, and LXRα/β gene expression in keratinocytes and fibroblasts. […] Setup TaqMan with QuantiTect Multiplex PCR Kit (QIAGEN cat. Number 204543): 2× master mix: 25 μl; Single Tube Assay: 2.5 μl; Applied Biosystems Primers Probe set (part number 4308329)-18S forward primer: 0.25 μl, 18S reverse primer: 0.25 μl, 18S probe: 0.25 μl; water to 50 μl; 5 μl cDNA. […]

MMP1 = assay: TaqMan quantitative PCR, MMP1 gene expression in BJ human fibroblasts; assay type: cell-based; details: 5 ng/ml rhTNFα, 1 μM, FIG. 8A
Experimental: (§2) Add QIAzol® Lysis Reagent (QIAGEN Cat Number 79306) to the cells. Scrape the cells and place into a Falcon Polypropylene tube. Let stand at room temperature for 5 minutes. Add 1 ml of cells to microfuge tubes. Add 200 μl of chloroform, vortex, let stand for 5 minutes. Centrifuge at 4° C. for 15 minutes at 14,000 RPM. Add an equal volume of 70% ETOH (diluted with DEPC water). Add 600 μl to the RNeasy® column from the RNeasy® Mini Kit (QIAGEN Cat. Number 74106) centrifuge at 14,000 RPM at room temperature for 1 minute, discard flow-through. Add remainder of sample to the column, centrifuge, discard flow-through. Add 350 μl of RW1 buffer from the RNeasy® Mini Kit to the column, centrifuge at room temperature for 1 minute, discard flow-through. […]
(§3) TaqMan technology was used for quantitative PCR for the evaluation of MMP, TNFα, TIMP, IL-8, ASAH1, SPTLC1, SMPD1, LASS2, TXNRD1, GPX3, GSR, CAT, ABCA1, ABCA2, ABCA12, ABCA13, ABCG1, decorin, and LXRα/β gene expression in keratinocytes and fibroblasts. […]
(§4) Setup TaqMan with QuantiTect Multiplex PCR Kit (QIAGEN cat. Number 204543): 2× master mix: 25 μl; Single Tube Assay: 2.5 μl; Applied Biosystems Primers Probe set (part number 4308329)—18S forward primer: 0.25 μl, 18S reverse primer: 0.25 μl, 18S probe: 0.25 μl; water to 50 μl; 5 μl cDNA. […]

[1] = test system: serine palmitoyl transferase (SPTLC1); assay: TaqMan quantitative PCR, SPTLC1 gene expression in NHEKs; assay type: cell-based, human; details: 1 μM, FIG. 10A
Experimental: as §1

[2] = test system: sphingomyelin phosphodiesterase (SMPD1); assay: TaqMan quantitative PCR, SMPD1 gene expression in NHEKs; assay type: cell-based, human; details: 1 μM, FIG. 10A
Experimental: as §1

TNFα = assay: TaqMan quantitative PCR, TNFα gene expression in NHEKs; assay type: cell-based, human; details: 1 μM, FIG. 2
Experimental: as §1

MMP3 [3] = assay: TaqMan quantitative PCR, MMP3 gene expression in BJ human fibroblasts; assay type: cell-based; details: 5 ng/ml rhTNFα, 1 μM, FIG. 8B
Experimental: as §2, §3, §4

LXRβ = assay: TaqMan quantitative PCR, LXRβ gene expression in NHEKs; assay type: cell-based, human; details: UV-exposed (8 J/m^2), 1 μM, FIG. 1B
[4] = test system: ceramide synthase (LASS2); assay: TaqMan quantitative PCR, LASS2 gene expression in NHEKs; assay type: cell-based, human; details: 1 μM, FIG. 10A
Experimental: as §1

MMP3 [5] = assay: TaqMan quantitative PCR, MMP3 gene expression in NHEKs; assay type: cell-based, human; details: UV-exposed (8 J/m^2), 1 μM, FIG. 3
Experimental: as §1

ABCG1 = assay: TaqMan quantitative PCR, ABCG1 gene expression in NHEKs; assay type: cell-based, human; details: 1 μM, FIG. 6A
Experimental: as §1

catalase (CAT) = assay: TaqMan quantitative PCR, CAT gene expression in NHEKs; assay type: cell-based, human; details: 1 μM, FIG. 11
Experimental: as §1

TIMP1 [6] = assay: TaqMan quantitative PCR, TIMP1 gene expression in BJ human fibroblasts; assay type: cell-based; details: 1 μM, FIG. 9
Experimental: as §2, §3, §4

ABCA13 = assay: TaqMan quantitative PCR, ABCA13 gene expression in NHEKs; assay type: cell-based, human; details: 1 μM, FIG. 6A
Experimental: as §1

[7] = test system: glutathione reductase (GSR); assay: TaqMan quantitative PCR, GSR gene expression in NHEKs; assay type: cell-based, human; details: 1 μM, FIG. 11
Experimental: as §1

TIMP1 [8] = assay: TaqMan quantitative PCR, TIMP1 gene expression in NHEKs; assay type: cell-based, human; details: 1 μM, FIG. 4
Experimental: as §1

ABCA2 = assay: TaqMan quantitative PCR, ABCA2 gene expression in NHEKs; assay type: cell-based, human; details: 1 μM, FIG. 6A
Experimental: as §1

[9] = test system: thioredoxin reductase (TXNRD1); assay: TaqMan quantitative PCR, TXNRD1 gene expression in NHEKs; assay type: cell-based, human; details: 1 μM, FIG. 11
Experimental: as §1

ABCA12 = assay: TaqMan quantitative PCR, ABCA12 gene expression in NHEKs; assay type: cell-based, human; details: 1 μM
Experimental: as §1

acid ceramidase (ASAH1) = assay: TaqMan quantitative PCR, ASAH1 gene expression in NHEKs; assay type: cell-based, human; details: 1 μM, FIG. 10A
Experimental: as §1

LXRα = assay: TaqMan quantitative PCR, LXRα gene expression in NHEKs; assay type: cell-based, human; details: 1 μM, FIG. 1A
ABCA1 = assay: TaqMan quantitative PCR, ABCA1 gene expression in NHEKs; assay type: cell-based, human; details: 1 μM, FIG. 6A
Experimental: as §1

decorin = assay: TaqMan quantitative PCR, decorin gene expression in NHEKs; assay type: cell-based, human; details: UV-exposed (8 J/m^2), 1 μM, FIG. 7
Experimental: as §1

[10] = test system: glutathione peroxidase (GPX3); assay: TaqMan quantitative PCR, GPX3 gene expression in NHEKs; assay type: cell-based, human; details: 1 μM, FIG. 11
Experimental: as §1

In the case of `O=S(=O)(c1ccccc1)N(CC(F)(F)F)c1ccc(C(O)(C(F)(F)F)C(F)(F)F)cc1` [T1317, N-(2,2,2-trifluoroethyl)-N-{4-[2,2,2-trifluoro-1-hydroxy-1-(trifluoromethyl)ethyl]phenyl}benzene sulfonamide], the “UV-induced expression of IL-8” value (IL-8) is reported as “reduced”, the “TNFα-induced MMP1 expression” value (MMP1) is reported as “inhibition” and the SPTLC1 expression [1] is reported as “induction”. The SMPD1 expression [2] was “induction”, the “UV-induced expression of TNFα” value (TNFα; UV-exposed (8 J/m^2)) was “reduced” and the “basal expression of TNFα” value (TNFα; UV-unexposed) was “reduced”. The “TNFα-induced MMP-3 expression” value (MMP3 [3]) was “inhibition”, the “UV-mediated inhibition of LXRβ expression” value (LXRβ) was “reversed” and the LASS2 expression [4] was “induction”. The “UV-induced MMP-3 expression” value (MMP3 [5]) was “inhibition”, the ABCG1 expression (ABCG1) was “induction” and the CAT expression (catalase (CAT)) was “induction”. The TIMP1 expression (TIMP1 [6]; TNFα-exposed (5 ng/ml rhTNFα)) was “induced”, the TIMP1 expression (TIMP1 [6]; TNFα-unexposed) was “induced” and the ABCA13 expression (ABCA13) was “induction”. For the same compound, the GSR expression [7] was “induction”, the TIMP1 expression (TIMP1 [8]; UV-exposed (8 J/m^2)) was “induced” and the TIMP1 expression (TIMP1 [8]; UV-unexposed) was “induced”. For the same compound, the ABCA2 expression (ABCA2) was “induction”, the TXNRD1 expression [9] was “induction” and the ABCA12 expression (ABCA12; FIG. 6A) was “induction”. For the same compound, the “UV-induced inhibition of ABCA12 expression” value (ABCA12; UV-exposed (8 J/m^2), FIG. 6B) was “reversed”, the ASAH1 expression (acid ceramidase (ASAH1)) was “induction” and the “expression of LXRα” value (LXRα; UV-exposed (8 J/m^2)) was “induced”. For the same compound, the “expression of LXRα” value (LXRα; UV-unexposed) was “induced”, the ABCA1 expression (ABCA1) was “induction” and the “UVB-mediated inhibition of decorin expression” value (decorin) was “reversed”. The GPX3 expression [10] was “induction”.
